Data on 28 compounds can be found in US20230045421A1 (priority 2018, published 2023).

One test relates to HBV rcDNA. Kind of test: HepDE19 assay with bDNA quantitation of HBV rcDNA. It is filed as cell-based, hepatitis B virus. The conditions noted are these: HepDE19 assay, inhibition of formation of rcDNA; read-out: DE-19bDNA EC50. Summed up: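 HepDE19 cells (HepG2-derived, Tet-regulated HBV replication) were deprived of tetracycline and then exposed to compounds for 7 days at 37 °C in 0.5% DMSO, 8-point titration from 25 μM. rcDNA was quantified by bDNA and EC50/EC90 came from 4-parameter fits. CC50 was measured by CellTiter-Glo ATP content on replicate plates after 4 days.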
Regarding `COCCN(C(=O)Nc1ccc(F)c(Cl)c1)C(C)c1cnc(OC)c2ccccc12` (single isomer, unassigned) [Compound 72, 3-(3-Chloro-4-fluorophenyl)-1-(2-methoxyethyl)-1-(1-(1-methoxyisoquinolin-4-yl)ethyl)urea], the EC50 was 21 µM. On the same count and under the same terms, the same measure for `CCCn1cc(C(C)N(C)C(=O)Nc2ccc(F)c(Cl)c2)c2ccccc2c1=O` (single isomer, unassigned) [Compound 185, 3-(3-Chloro-4-fluorophenyl)-1-methyl-1-(1-(1-oxo-2-propyl-1,2-dihydroisoquinolin-4-yl)ethyl)urea]: 0.34 µM; for `CC(c1cnc(NCCO)c2ccccc12)N(C)C(=O)Nc1ccc(F)c(Cl)c1` (single isomer, unassigned) [Compound 243, 3-(3-Chloro-4-fluorophenyl)-1-(1-(1-((2-hydroxyethyl)amino)isoquinolin-4-yl)ethyl)-1-methylurea]: 9.9 µM.

On to `CCN(C(=O)Nc1ccc(F)c(Cl)c1)C(c1ccccc1)c1cnc(OC)c2ccccc12` (single isomer, unassigned) [Compound 59, 3-(3-Chloro-4-fluorophenyl)-1-ethyl-1-((1-methoxyisoquinolin-4-yl)(phenyl)methyl)urea], for which the concentration giving a half-maximal response (EC50) turned out to be 22 µM. In the case of `COc1ncc(C(C)N(C(=O)Nc2ccc(F)c(Cl)c2)C2CC2)c2ccccc12` (single isomer, unassigned) [Compound 56, 3-(3-Chloro-4-fluorophenyl)-1-cyclopropyl-1-(1-(1-methoxyisoquinolin-4-yl)ethyl)urea], the EC50 was found to be 13 µM. As to `CC(c1c[nH]c(=O)c2ccccc12)N(CCNCC(F)F)C(=O)Nc1ccc(F)c(Cl)c1` (single isomer, unassigned) [Compound 198, 3-(3-Chloro-4-fluorophenyl)-1-(2-((2,2-difluoroethyl)amino)ethyl)-1-(1-(1-oxo-1,2-dihydroisoquinolin-4-yl)ethyl)urea], the EC50 came out at 11.9 µM.

Turning to `CC(=O)NCCN(C(=O)Nc1ccc(F)c(Cl)c1)C(C)c1c[nH]c(=O)c2ccccc12` (single isomer, unassigned) [Compound 139, N-(2-(3-(3-Chloro-4-fluorophenyl)-1-(1-(1-oxo-1,2-dihydroisoquinolin-4-yl)ethyl)ureido)ethyl)acetamide], the EC50 came out at 0.46 µM. Still for that read-out and setting: for `CC(c1c[nH]c(=O)c2ccccc12)N(CCC(=O)N(C)C)C(=O)Nc1ccc(F)c(Cl)c1` (single isomer, unassigned) [Compound 106, 3-(3-(3-Chloro-4-fluorophenyl)-1-(1-(1-oxo-1,2-dihydroisoquinolin-4-yl)ethyl)ureido)-N,N-dimethylpropanamide] the value was 0.08 µM.

Staying with this test, now noted: HepDE19 assay, inhibition of formation of relaxed circular DNA (rcDNA), bDNA quantitation; read-out: DE-19bDNA EC50.
On to `CC(c1c[nH]c(=O)c2ccccc12)N(Cc1cccnc1)C(=O)Nc1ccc(F)c(Cl)c1` (single isomer, unassigned) [Compound 307, 3-(3-Chloro-4-fluorophenyl)-1-(1-(1-oxo-1,2-dihydroisoquinolin-4-yl)ethyl)-1-(pyridin-3-ylmethyl) urea], for which the EC50 was determined as 20 µM. The same measure, in the same setting: the same measure for `CC(c1c[nH]c(=O)c2ccccc12)N(Cc1nccs1)C(=O)Nc1ccc(F)c(Cl)c1` (single isomer, unassigned) [Compound 310, 3-(3-Chloro-4-fluorophenyl)-1-(1-(1-oxo-1,2-dihydroisoquinolin-4-yl)ethyl)-1-(thiazol-2-ylmethyl)urea]: 5.5 µM.

As for `CC(c1cn(C)c(=O)c2c(F)cccc12)N(C)C(=O)Nc1ccc(F)c(Cl)c1` (single isomer, unassigned) [Compound 358, 3-(3-Chloro-4-fluorophenyl)-1-(1-(8-fluoro-2-methyl-1-oxo-1,2-dihydroisoquinolin-4-yl)ethyl)-1-methylurea], the EC50 stood at 5.9 µM. For the compound `CC(c1c[nH]c(=O)c2c(F)c(F)ccc12)N(C)C(=O)Nc1ccc(F)cc1` (single isomer, unassigned) [Compound 433, 1-(1-(7,8-Difluoro-1-oxo-1,2-dihydroisoquinolin-4-yl)ethyl)-3-(4-fluorophenyl)-1-methylurea], the EC50 is 0.07 µM. Still for that read-out and setting: for `CC(C)CN(C(=O)Nc1ccc(F)c(Cl)c1)C(C)c1c[nH]c(=O)c2c(F)cccc12` (single isomer, unassigned) [Compound 360, 3-(3-Chloro-4-fluorophenyl)-1-(1-(8-fluoro-1-oxo-1,2-dihydroisoquinolin-4-yl)ethyl)-1-isobutylurea] the value was 0.18 µM. As for `CC(c1cn(C)c(=O)c2cc(F)ccc12)N(C)C(=O)Nc1ccc(F)c(Cl)c1` (single isomer, unassigned) [Compound 302, 3-(3-Chloro-4-fluorophenyl)-1-(1-(7-fluoro-2-methyl-1-oxo-1,2-dihydroisoquinolin-4-yl)ethyl)-1-methylurea], the EC50 amounted to 3.3 µM. Still for that read-out and setting: the same measure for `CC(c1c[nH]c(=O)c2c(F)cc(F)cc12)N(C)C(=O)Nc1ccc(F)c(Cl)c1` (single isomer, unassigned) [Compound 368, 3-(3-Chloro-4-fluorophenyl)-1-(1-(6,8-difluoro-1-oxo-1,2-dihydroisoquinolin-4-yl)ethyl)-1-methylurea]: 2.5 µM; for `CC(c1c[nH]c(=O)c2cc(F)c(F)cc12)N(C)C(=O)Nc1ccc(F)c(C(F)F)c1` (single isomer, unassigned) [Compound 502, 1-(1-(6,7-Difluoro-1-oxo-1,2-dihydroisoquinolin-4-yl)ethyl)-3-(3-(difluoromethyl)-4-fluorophenyl)-1-methylurea]: 0.017 µM.

Still in this test, the particulars now being: Hepatitis B virus, HepDE19, HepDE19 assay, inhibition of formation of rcDNA; read-out: DE-19bDNA EC50.
As to `CCCCN(Cc1c[nH]c(=O)c2ccccc12)C(=O)Nc1ccc(F)c(Cl)c1` [Compound 52, 1-Butyl-3-(3-chloro-4-fluorophenyl)-1-((1-oxo-1,2-dihydroisoquinolin-4-yl)methyl)urea], the EC50 was determined as 0.08 µM. Regarding `CC(c1c[nH]c(=O)c2ccccc12)N(CC(=O)N(C)C)C(=O)Nc1ccc(F)c(Cl)c1` (racemic) [Compound 147, 2-(3-(3-Chloro-4-fluorophenyl)-1-(1-(1-oxo-1,2-dihydroisoquinolin-4-yl)ethyl)ureido)-N,N-dimethylacetamide], the EC50 stood at 0.84 µM. Same read-out and setting: the same measure for `CC(C)N(Cc1c[nH]c(=O)c2ccccc12)C(=O)Nc1ccc(F)c(Cl)c1` [Compound 26, 3-(3-Chloro-4-fluorophenyl)-1-isopropyl-1-((1-oxo-1,2-dihydroisoquinolin-4-yl)methyl)urea]: 0.43 µM; for `C[C@H](c1c[nH]c(=O)c2ccccc12)N(CC(F)F)C(=O)Nc1ccc(F)c(Cl)c1` [Compound 96, (R)-3-(3-Chloro-4-fluorophenyl)-1-(2,2-difluoroethyl)-1-(1-(1-oxo-1,2-dihydroisoquinolin-4-yl)ethyl)urea]: 0.22 µM; for `CC(c1c[nH]c(=O)c2cc(Cl)ccc12)N(C)C(=O)Nc1ccc(F)c(Cl)c1` (racemic) [Compound 271, 1-(1-(7-Chloro-1-oxo-1,2-dihydroisoquinolin-4-yl)ethyl)-3-(3-chloro-4-fluorophenyl)-1-methylurea]: 0.2 µM. Same read-out and setting: the same measure for `CC(C)CN(C(=O)Nc1ccc(F)c(Cl)c1)C(C)c1c[nH]c(=O)c2ccccc12` (racemic) [Compound 135, 3-(3-chloro-4-fluorophenyl)-1-isobutyl-1-(1-(1-oxo-1,2-dihydroisoquinolin-4-yl)ethyl)urea]: 0.01 µM.

The test is the same for the next values; noted with them: Hepatitis B virus, HepDE19, HepDE19 assay, inhibition of formation of relaxed circular DNA (rcDNA), bDNA quantitation; read-out: DE-19bDNA EC50.
Take `CC(c1c[nH]c(=O)c2c(F)cc(F)cc12)N(CCCO)C(=O)Nc1ccc(F)c(Cl)c1` (stereo not shown) [Compound 373, 3-(3-Chloro-4-fluorophenyl)-1-(1-(6,8-difluoro-1-oxo-1,2-dihydroisoquinolin-4-yl)ethyl)-1-(3-hydroxypropyl)urea]: the concentration for a half-maximal effect (EC50) amounted to 2.6 µM. Same read-out and setting: for `CC(C)CN(C(=O)Nc1ccc(F)c(Cl)c1)C(C)c1cnc(-n2cncn2)c2ccccc12` (racemic) [Compound 300, 1-(1-(1-(1H-1,2,4-triazol-1-yl)isoquinolin-4-yl)ethyl)-3-(3-chloro-4-fluorophenyl)-1-isobutylurea] the value was 0.02 µM.

Still in this test, the particulars now being: Hepatitis B virus, HepDE19, read-out: DE-19bDNA EC50 (μM), HepDE19 assay, inhibition of formation of relaxed circular DNA (rcDNA), bDNA quantitation.
Take `[2H]C([2H])([2H])N(C(=O)Nc1ccc(F)c(Cl)c1)C(C)c1c[nH]c(=O)c2c(F)c(F)ccc12` (single isomer, unassigned) [Compound 473, 3-(3-Chloro-4-fluorophenyl)-1-(1-(7,8-difluoro-1-oxo-1,2-dihydroisoquinolin-4-yl)ethyl)-1-(methyl-d3)urea]: the EC50 is 0.01 µM.

The test is the same for the next values; noted with them: read-out: DE-19bDNA EC50; HepDE19 assay, inhibition of formation of rcDNA.
Consider `CCC(c1c[nH]c(=O)c2ccccc12)N(CC)C(=O)Nc1ccc(F)c(Cl)c1` (single isomer, unassigned) [Compound 39, 3-(3-Chloro-4-fluorophenyl)-1-ethyl-1-(1-(1-oxo-1,2-dihydroisoquinolin-4-yl)propyl)urea], for which the EC50 worked out at 14 µM.

The test is the same for the next values; noted with them: read-out: DE-19bDNA EC50; HepDE19 assay, inhibition of formation of relaxed circular DNA (rcDNA), bDNA quantitation.
In the case of `CC(c1c[nH]c(=O)c2cc(F)c(F)cc12)N(C)C(=O)Nc1ccccc1` (single isomer, unassigned) [Compound 399, 1-(1-(6,7-Difluoro-1-oxo-1,2-dihydroisoquinolin-4-yl)ethyl)-1-methyl-3-phenylurea], the EC50 stood at 0.11 µM. Still for that read-out and setting: for `CC(c1c[nH]c(=O)c2c(F)c(F)ccc12)N(C)C(=O)Nc1cccc(F)c1` (single isomer, unassigned) [Compound 456, 1-(1-(7,8-Difluoro-1-oxo-1,2-dihydroisoquinolin-4-yl)ethyl)-3-(3-fluorophenyl)-1-methylurea] the value was 0.051 µM.

For orientation: EC50 means the concentration giving half of the maximal effect.
